For one data set, the species on record is Homo sapiens. The experiment in a line: Chaperone activity at GCase L444P GBA gene mutant in human fibroblasts derived from Gaucher patient assessed as increase in GPN-induced reduction of calcium release using Fluo-8AM based fluorescence assay relative to control.
Data set [1] is described as follows: Chaperone activity at GCase L444P GBA gene mutant in human fibroblasts derived from Gaucher patient assessed as increase in GPN-induced reduction of calcium release using Fluo-8AM based fluorescence assay.
The target of data set [2] is T1, Estrogen receptor (Homo sapiens) (UniProt P03372).
T1 sequence (whole entry): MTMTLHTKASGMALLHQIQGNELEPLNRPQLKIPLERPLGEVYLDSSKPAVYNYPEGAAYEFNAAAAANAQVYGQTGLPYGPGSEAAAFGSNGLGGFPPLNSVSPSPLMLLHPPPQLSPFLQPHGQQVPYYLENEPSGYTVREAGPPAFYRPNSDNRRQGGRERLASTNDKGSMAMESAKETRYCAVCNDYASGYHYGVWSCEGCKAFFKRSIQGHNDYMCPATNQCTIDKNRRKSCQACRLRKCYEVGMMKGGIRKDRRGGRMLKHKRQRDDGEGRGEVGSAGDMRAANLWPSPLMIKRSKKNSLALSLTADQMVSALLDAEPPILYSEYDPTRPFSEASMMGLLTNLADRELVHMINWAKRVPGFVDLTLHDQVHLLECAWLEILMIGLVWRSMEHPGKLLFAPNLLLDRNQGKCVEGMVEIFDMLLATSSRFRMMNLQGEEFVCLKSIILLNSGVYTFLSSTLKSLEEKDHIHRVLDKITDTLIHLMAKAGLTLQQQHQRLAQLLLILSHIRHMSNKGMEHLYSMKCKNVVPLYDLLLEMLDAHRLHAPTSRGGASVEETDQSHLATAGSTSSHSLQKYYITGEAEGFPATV
Description: Agonist activity at estradiol receptor (unknown origin) at 10 uM relative to control.

The target in data set [3] is T2, Lysosomal acid glucosylceramidase (Homo sapiens) (UniProt P04062).
T2 sequence (whole entry): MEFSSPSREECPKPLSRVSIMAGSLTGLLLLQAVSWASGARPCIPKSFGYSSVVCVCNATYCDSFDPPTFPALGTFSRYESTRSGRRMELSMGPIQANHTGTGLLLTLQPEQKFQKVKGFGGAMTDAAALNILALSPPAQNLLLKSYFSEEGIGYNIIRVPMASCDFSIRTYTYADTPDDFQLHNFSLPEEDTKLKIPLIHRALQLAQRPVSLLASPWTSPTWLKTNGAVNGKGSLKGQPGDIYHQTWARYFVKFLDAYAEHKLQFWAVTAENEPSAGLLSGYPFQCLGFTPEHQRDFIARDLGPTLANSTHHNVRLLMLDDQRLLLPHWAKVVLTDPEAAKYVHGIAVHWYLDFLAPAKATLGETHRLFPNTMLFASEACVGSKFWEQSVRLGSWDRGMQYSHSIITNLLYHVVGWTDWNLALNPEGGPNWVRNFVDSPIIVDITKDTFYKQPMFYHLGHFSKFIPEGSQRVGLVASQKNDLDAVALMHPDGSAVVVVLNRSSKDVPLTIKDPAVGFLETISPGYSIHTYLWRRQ
Description: Chaperone activity at GCase in wild-type human fibroblasts assessed as increase in GPN-induced reduction of calcium release using Fluo-8AM based fluorescence assay relative to control.

Data set [4] in a line: Aqueous solubility of compound in PBS. As to conditions: buffer. The class given is physicochemical.
For data set [5] the following is noted: human, microsomes.
The conditions of data set [6]: mouse, microsomes.
Description: Metabolic stability in mouse liver microsomes assessed as half life

In brackets after ≈: the same amount, converted by molar mass.

In general, Emax refers to the size of the effect at its maximum, as opposed to the concentration needed. One may read the EC50 as the concentration at which the effect is half-maximal. For `CCCC/C(=C\c1ccc(OCCN(C)C)cc1)c1ccccc1`, the maximal effect (Emax) in the data set filed under Homo sapiens turned out to be 56%. The EC50 in data set [1] is 7.2 µM. This compound displayed an Activity in data set [2] of 98%.
As for `CC/C(=C/c1ccc(OCCN(C)C)cc1)c1ccccc1`, the Emax in the data set listed under Homo sapiens is 80%. The EC50 in data set [1] stood at 15.5 µM. Further, in data set [2], the Activity was 35%.
Regarding `CC(C)CC(C(=O)c1ccc(OCCN(C)C)cc1)c1ccccc1C(C)C` (configuration not stated), the results for the Emax (in the data set filed under Homo sapiens; in data set [3]) were 406% and 148%, respectively. This compound returned an Activity in data set [2] of 39%.
Regarding `CCC(Cc1ccccc1)c1ccc(OCCN(C)C)cc1` (configuration not stated), the Emax in the data set filed under Homo sapiens was 0%. The 50% effective concentration (EC50) in data set [1] was > 20 µM. The same compound gave an Activity in data set [2] of 75%.
Regarding `CC/C(=C/c1ccc(OCCN(C)C)cc1)c1ccc(F)cc1`, the Emax in the data set filed under Homo sapiens was determined as 0%. Also, the EC50 in data set [1] was > 20 µM. For the same compound, in data set [2], the Activity is 46%.
In the case of `CC(C)C(C(=O)c1ccc(OCCN(C)C)cc1)c1ccccc1` (configuration not stated), the maximal effect (Emax) in the data set listed under Homo sapiens was 54%. The EC50 in data set [1] came to 4.4 µM.
Consider `CC(C)CC(C(=O)c1ccc(OCCN(C)C)cc1)c1cccc(C(C)C)c1` (configuration not stated), for which, in the data set listed under Homo sapiens, the Emax was found to be 80%. Moreover, the EC50 in data set [1] is 1.5 µM.
With `CC/C(=C\c1ccc(OCCN(C)C)cc1)c1ccccc1`, the Emax in the data set listed under Homo sapiens is 73%. The EC50 in data set [1] is 5.8 µM. This compound had an Activity in data set [2] of 19%.
Turning to `C=Cc1ccccc1C(CCCC)C(=O)c1ccc(OCCN(C)C)cc1` (configuration not stated), the Emax in the data set filed under Homo sapiens came to 177%. Also, the EC50 in data set [1] was 2.3 µM. Further, the Activity in data set [2] amounted to 100%.
In general, solubility refers to how much of the substance goes into solution per volume. In the case of `CC(C)CC(C(=O)c1ccc(OCCN(C)C)cc1)c1ccccc1C1CC1` (racemic), the Emax in the data set listed under Homo sapiens was 240%; in data set [3], 50%. Moreover, in data set [1], the EC50 was 3.1 µM. For the same compound, the solubility in data set [4] stood at 31.7 µM (≈ 12 µg/mL). The compound also showed an Activity in data set [2] of 0%. Further, the t1/2 in data set [5] is 26.7 min; in data set [6], 7.7 min.
For the compound `CCCC(CCC)(C(=O)c1ccc(OCCN(C)C)cc1)c1ccccc1`, the Emax in the data set listed under Homo sapiens worked out at 60%. Also, the EC50 in data set [1] came out at 4 µM. The compound also registered an Activity in data set [2] of 25%.
Consider `CC/C(=C/c1ccc(OCCN(C)C)cc1)c1ccc(Cl)cc1`, for which, in the data set filed under Homo sapiens, the Emax was found to be 70%. For the same compound, the EC50 in data set [1] came out at 5.4 µM. Moreover, the Activity in data set [2] worked out at 70%.
For the compound `CCCCCCC(C(=O)c1ccc(OCCN(C)C)cc1)c1ccccc1` (configuration not stated), the Emax in the data set filed under Homo sapiens worked out at 0%. The EC50 in data set [1] was > 20 µM. The compound also came in with an Activity in data set [2] of 5%.
For `CC/C(=C\c1ccc(OCCN(C)C)cc1)Cc1ccccc1`, in that order: 67%, 3.1 µM and 69%.
Regarding `CC/C(=C(\c1ccc(I)cc1)c1ccc(OCCN2CCCC2)cc1)c1ccccc1` [IDOXIFENE], the Emax in the data set listed under Homo sapiens turned out to be 48%. Also, the EC50 in data set [1] was found to be 10.7 µM.
On to `CCC(Cc1ccc(OCCN(C)C)cc1)c1ccccc1` (configuration not stated), for which the Emax in the data set filed under Homo sapiens was found to be 154%. Also, the EC50 in data set [1] worked out at 4.3 µM. The compound also displayed an Activity in data set [2] of 43%.
Take `CCCCC(C(=O)c1ccc(OCCN(C)C)cc1)c1ccccc1CC` (configuration not stated): in the data set filed under Homo sapiens, the Emax stood at 138%. For the same compound, the EC50 in data set [1] amounted to 0.65 µM.
For the compound `CC/C(=C(\c1ccccc1)c1ccc(OCCN(C)C)cc1)c1ccccc1`, the maximum response (Emax) came to 148% in the data set filed under Homo sapiens and 28% in data set [3].
On to `CC/C(=C/c1ccc(OCCN(C)C)cc1)c1ccc([N+](=O)[O-])cc1`, for which, in the data set listed under Homo sapiens, the Emax came out at 0%. Moreover, the EC50 in data set [1] is > 20 µM.
Take `CC(C)CC(C(=O)c1ccc(OCCN(C)C)cc1)c1ccccc1` (configuration not stated): in the data set listed under Homo sapiens, the Emax was determined as 108%. For the same compound, the concentration giving a half-maximal response (EC50) in data set [1] was found to be 0.9 µM. Besides, in data set [2], the Activity amounted to 40%.
For the compound `CC/C(=C\c1ccccc1)c1ccc(OCCN(C)C)cc1`, the Emax in the data set listed under Homo sapiens is 53%. For the same compound, the EC50 in data set [1] turned out to be 3 µM. In data set [2], this compound showed an Activity of 43%.
On to `CC/C(=C/c1ccc(OCCN(C)C)cc1)c1ccc(C(N)=O)cc1`, for which the Emax in the data set listed under Homo sapiens came out at 0%. In addition, the EC50 in data set [1] is > 20 µM. In addition, in data set [2], the Activity was 46%.
In the case of `CCCCC(C(=O)c1ccc(OCCN(C)C)cc1)c1ccccc1C(C)C` (configuration not stated), the maximum response (Emax) was found to be 401% in the data set listed under Homo sapiens and 56% in data set [3]. Further, the EC50 in data set [1] came to 1.4 µM. This compound had a solubility in data set [4] of 49.4 µM (≈ 18.8 µg/mL). Besides, in data set [2], the Activity came to 45%. In addition, the t1/2 in data set [5] is recorded as 21.6 min; in data set [6], 7.9 min.
On to `CCCCC(C(=O)c1ccc(OCCN(C)C)cc1)c1ccccc1` (configuration not stated), for which the Emax in the data set listed under Homo sapiens came out at 0%. For the same compound, in data set [1], the EC50 is > 20 µM.
Turning to `CC/C(=C/c1ccc(OCCN(C)C)cc1)c1ccc(N)cc1`, the Emax in the data set listed under Homo sapiens was found to be 0%. Besides, in data set [1], the EC50 is > 20 µM. In data set [2], this compound gave an Activity of 25%.
In the case of `C/C=C/c1ccccc1C(CCCC)C(=O)c1ccc(OCCN(C)C)cc1` (configuration not stated), the Emax came to 257% in the data set listed under Homo sapiens and 109% in data set [3]. Further, in data set [1], the EC50 was determined as 2.2 µM. Moreover, in data set [4], the solubility came to 45.2 µM (≈ 17.2 µg/mL). This compound came in with an Activity in data set [2] of 35%. Further, the values for the t1/2 in data set [5] and in data set [6] were 24.4 min and 9.1 min, respectively.
Take `CC/C(=C/c1ccc(OCCN(C)C)cc1)Cc1ccccc1`: the Emax in the data set filed under Homo sapiens was found to be 40%. For the same compound, the concentration giving a half-maximal response (EC50) in data set [1] is 2.3 µM. The compound also had an Activity in data set [2] of 47%.
On to `CC(C)CCC(C(=O)c1ccc(OCCN(C)C)cc1)c1ccccc1` (configuration not stated), for which the Emax in the data set filed under Homo sapiens was found to be 191%. Besides, the concentration giving a half-maximal response (EC50) in data set [1] amounted to 3.6 µM. The compound further had an Activity in data set [2] of 35%.
As to `CC/C(=C/c1ccc(OCCN(C)C)cc1)c1ccc(C#N)cc1`, in the data set filed under Homo sapiens, the Emax was 47%. For the same compound, the EC50 in data set [1] is 4.3 µM. The same compound returned an Activity in data set [2] of 32%.
